Laboratory results from paper PMC2637266, “Quantification of gamma-secretase modulation differentiates inhibitor compound selectivity between two substrates Notch and amyloid precursor protein” (Molecular Brain, 2008).
Entries after “also recorded” stand apart in the source; their conditions may differ. Where two headings read alike, the source gives them in different places.

What was measured:
[1] = target: T1, γ-secretase cleavage of APP C100-Flag (Homo sapiens, UniProt P49768); assay: In vitro γ-secretase activity assay, Aβ generated from C100-Flag, ELISA; format: biochemical; settings: for γ-secretase cleavage of APP in vitro at low concentrations: 0.1 nM to 10 nM; for IC50: C100-Flag, 37°C, 4 hr; for Aβ production in vitro, dose response: C100Flag, increasing concentrations
T1 construct: substrate made in E. coli
Experimental: To characterize the direct effect of two γ-secretase inhibitors cpd E and DAPT on APP/Notch cleavage, a conventional in vitro γ-secretase assay to quantify their inhibitory potency was used. The incubation of γ-secretase complex with purified substrates at 37°C for 4 hr was followed by Western Blot (WB) to determine the quantity of newly generated NICD. A newly generated band that corresponds to the predicted size of the NICD-Flag was detected (Fig. 1A and 1B).
Figure 1 Generation of NICD and Aβ from purified APP and Notch substrate C100 and N100 in an in vitro γ-secretase activity assay. The E. coli generated APP- and Notch-based, 100-residue γ-secretase substrates C100-Flag and N100-Flag were mixed with the membrane vesicles solubilized in CHAPSO after DMSO or compounds were added. The mixture was incubated at 37°C for 4 hours. A. A dose-dependent inhibition of NICD generation by DAPT. Generation of NICD was detected by Western blot (WB) with antibody 1744 specifically recognizing N-terminus of NICD. B. Generation of NICD was inhibited in the presence of 100 nM of cpd E. C. Levels of NICD determined by WB were quantified by densitometry (dotted line). Levels of Aβ generated from the γ-secretase cleavage of C100 in the presence of DAPT were determined by ELISA (solid line). […] D. NICD (dotted line) and Aβ (solid line) generation in the presence of cpd E were compared.
The same preparation of γ-secretase complex was mixed with C100Flag followed by ELISA to quantify the levels of newly generated Aβ.
The E. coli generated APP- and Notch-based, 100-residue γ-secretase substrates C100-Flag and N100-Flag were purified as previously described. C100-Flag substrate contains an initiating methionine, the 99 C-terminal residues of APP that start at the […], and a Flag tag. N100-Flag substrate contains a similar initiating methionine, 99 amino acids that start at the TACE cleavage site, and a Flag tag. The membrane vesicles were solubilized in 1% CHAPSO-HEPES and diluted in a final concentration of 0.2% CHAPSO-HEPES. Phosphatidylethanolamine (PE) and phosphatidylcholine (PC) were added to the final concentration of 0.02% PE and 0.08% PC. After adding DMSO or test compounds to the solubilized γ-secretase complex, substrate C100-Flag or N100-Flag was added to the mixture, then followed by incubation at 37°C for 4 hours. Two compounds have been used in this study, compound E (cpd E), {(S,S)-2-[2-(3,5-Difluorophenyl)-acetylamino]-N-(1-methyl-2-oxo-5-phenyl-2,3-dihydro-1H-benzo [e] [1,4] diazepin-3-yl)-propionamide} [57] and DAPT {N-[N-(3,5-Difluorophenacetyl-L-alanyl)]-S-phenylglycine t-Butyl Ester} [79]. Cpd E was provided by Dr. Michael Wolfe.
Sandwich ELISAs for Aβ were performed as described. The capture antibodies, 2G3 (to Aβ residues 33–40) and 4G8 (to Aβ residues 17–24), were used for Aβ40 and Aβ total species, respectively. The detecting antibodies were biotinylated 82E1 (to Aβ residues 1–16) for Aβ1–40/total or biotinylated 266 for Aβx-40 species. The use of mid-region and C-terminal capturing antibodies and N-terminal detecting antibody for chimeric "Notch-Aβ-like" peptide (Nβ*) has been documented. The combination of several capture/detecting antibodies are use to measure Aβ and Nβ* derived from different precursors. The capture antibody 2G3 and detecting antibody 82E1 were used for measuring Nβ* from APP-α-Notch expressing cells. Since the APP-α-NOTCH is the fusion protein with its juxtamembrane portion of the APP ectodomain (the α-secretase cleavage region) replaced by the corresponding sequence in Notch, the epitopes in APP sequence could still be recognized by 2G3 (C-terminus) and 82E1 (N-terminus). The capture antibody 4G8 and detecting antibody 82E1 were used for measuring Nβ* from APP-m-Notch expressing cells. […]

[2] = tested on: NICD dependent luciferase activity (Hes-1 reporter); assay: Hes-Luc luciferase reporter assay in HEK293 cells co-transfected with NotchΔE; format: cell-based, human; settings: at concentrations that completely blocked Aβ generation
Experimental: Figure 2 Generation of NICD and Aβ from NotchΔE and APP expressing cells. A. Twenty four hrs after the construct carrying NotchΔE was transfected into APP expressing HEK293 cells, cells were treated with DAPT or cpd E for 8 hr and lysed for WB with antibody 1744 to specifically detect the N-terminus of NICD. Bottom panel, the antibody against α-tubulin was applied to normalize the amounts of lysates used for WB. B. Levels of NICD determined by WB were quantified by densitometry (dotted line). Levels of Aβ generated from the γ-secretase cleavage of APP in the presence of DAPT were determined by ELISA. […] C. NICD (dotted line) and Aβ (solid line) production from cpd E-treated cells were compared. […] D. A luciferase reporter construct driven by HES1 promoter was transfected into HEK293 cells followed by treatment with cpd E or DAPT.
Semi-quantification of NICD levels was detected by WB, and the inhibition profile of DAPT (Fig. 2B) and cpd E (Fig. 2C) were compared on NICD and Aβ generation in cultured cells. […] Since Notch signaling and levels of NICD can be examined by quantifying the expression of the Notch target gene, a Hes-1 reporter construct (Hes-Luc) was generated by insertion of three Su(H) binding sequences in the pGL3-pro luciferase reporter vector. […]

T1 sequence (Q96BI3 whole entry, other chains not shown): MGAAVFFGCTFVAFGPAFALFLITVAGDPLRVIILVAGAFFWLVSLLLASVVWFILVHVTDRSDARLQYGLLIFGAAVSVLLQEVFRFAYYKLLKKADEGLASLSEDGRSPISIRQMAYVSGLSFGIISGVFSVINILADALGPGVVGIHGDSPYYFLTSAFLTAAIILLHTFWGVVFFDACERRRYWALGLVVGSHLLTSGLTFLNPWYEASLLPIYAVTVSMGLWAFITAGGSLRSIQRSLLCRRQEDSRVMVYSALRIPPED
T1 sequence (Q92542 34-709, other chains not shown, further chain): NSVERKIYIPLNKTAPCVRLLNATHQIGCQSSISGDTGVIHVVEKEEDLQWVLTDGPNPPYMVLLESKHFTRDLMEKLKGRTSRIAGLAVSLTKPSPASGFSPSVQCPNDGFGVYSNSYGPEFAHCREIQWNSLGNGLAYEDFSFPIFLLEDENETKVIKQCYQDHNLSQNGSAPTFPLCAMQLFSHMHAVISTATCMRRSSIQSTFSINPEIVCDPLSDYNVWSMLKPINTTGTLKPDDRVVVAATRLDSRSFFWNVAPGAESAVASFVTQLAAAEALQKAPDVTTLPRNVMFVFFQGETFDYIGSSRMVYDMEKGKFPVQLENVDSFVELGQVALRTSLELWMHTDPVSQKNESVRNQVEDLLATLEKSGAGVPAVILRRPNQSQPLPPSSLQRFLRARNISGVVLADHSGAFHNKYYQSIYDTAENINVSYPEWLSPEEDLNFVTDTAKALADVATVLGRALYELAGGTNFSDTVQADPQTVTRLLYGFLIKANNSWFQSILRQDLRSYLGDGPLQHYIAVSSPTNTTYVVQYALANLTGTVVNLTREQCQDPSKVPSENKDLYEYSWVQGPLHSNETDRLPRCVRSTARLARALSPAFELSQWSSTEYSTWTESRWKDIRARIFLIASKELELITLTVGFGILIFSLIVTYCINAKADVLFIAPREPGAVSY
T1 sequence (Q9NZ42 whole entry, other chains not shown, further chain): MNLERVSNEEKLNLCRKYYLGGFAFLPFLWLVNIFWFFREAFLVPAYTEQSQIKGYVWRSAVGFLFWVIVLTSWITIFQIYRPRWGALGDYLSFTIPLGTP

Structure (SMILES)	γ-secretase cleavage of APP in vitro at low concentrations [1]	Aβ generation from APP C100 in vitro ([1]; 100 nM (0.1 μM))	IC50 ([1]; read-out: IC50 for Aβ generation (levels of Aβ reduced to 50%) in vitro)	Aβ production in vitro, dose response [1]	luciferase activities remained [2]	Aβ production in vitro ([1]; 10 and 100 μM)	IC50 ([1]; read-out: concentration inhibiting levels of Aβ to 50% in vitro)
C[C@H](NC(=O)Cc1cc(F)cc(F)c1)C(=O)N[C@H]1N=C(c2ccccc2)c2ccccc2N(C)C1=O [cpd E, (S,S)-2-[2-(3,5-Difluorophenyl)-acetylamino]-N-(1-methyl-2-oxo-5-phenyl-2,3-dihydro-1H-benzo [e] [1,4]diazepin-3-yl)-propionamide]	selectively inhibited the γ-secretase cleavage of APP	could almost deplete any Aβ generation; also recorded: completely blocked Aβ generation	1 nM	dose-dependent reduction of Aβ production	about 50%	–	–
C[C@H](NC(=O)Cc1cc(F)cc(F)c1)C(=O)N[C@H](C(=O)OC(C)(C)C)c1ccccc1 [DAPT, N-[N-(3,5-Difluorophenacetyl-L-alanyl)]-S-phenylglycine t-Butyl Ester]	did not inhibit	–	–	dose-dependent reduction of Aβ production	about 50%	complete depletion of Aβ production	1000 nM
